This is an account of results in patent publication US20240373851A1, “PEST CONTROL COMPOSITION AND PEST CONTROL METHOD” (SUMITOMO CHEMICAL COMPANY, LIMITED, priority 2021, published 2024).

Structures are written as SMILES.

Holding throughout (format): in vivo
Data set [1] deals with German cockroaches (Blattella germanica). Nature of the data set: Test Example 6: control test against German cockroaches, spray in chamber. The following applies: adult German cockroaches; 1.5 mL sprayed; concentration [%]: isocycloseram 0.05, imiprothrin 0.01, lambda-cyhalothrin 0.0025, alone or mixed; 60 minutes after spraying. Here is the method: (§1) Next, the usefulness of the inventive composition for controlling pests will be indicated by Test Examples. In general, the control effect to be expected when treated with a mixture obtained by mixing given two or three types of active ingredient compounds is determined by the Colby's calculation equation represented by the following [Equation 1] and [Equation 2].
(§2) [formula] • P: moribund and mortal rates (%) when treated with an active ingredient compound X in the concentration of m [ppm] • Q: moribund and mortal rates (%) when treated with an active ingredient compound Y in the concentration of n [ppm] • EA: moribund and mortal rates (%) when treated with an active ingredient compound X in the concentration of m [ppm] and an active ingredient compound Y in the concentration of n [ppm] (hereinafter referred to as expected value A) […]
(§3) Regarding the synergistic effect of three types of the active ingredient compounds, in case where the moribund and mortal rates (%) when actually treated with a mixture obtained by mixing three types of the active ingredient compounds exceed the expected value A calculated by using the moribund and mortal rates (%) when actually treated with a mixture obtained by mixing two types of the active ingredient compounds among three types thereof, and the moribund and mortal rates (%) calculated when actually treated the remaining one type of the active ingredient compound, or the expected value B (%) calculated from the moribund and mortal rates (%) when actually treated with each of three types of the active ingredient compounds alone, it was determined that the synergistic effect exists. […]

The test system is the same in data set [2]. Nature of the data set: Test Example 4: control test against German cockroaches, spray in chamber. The conditions noted are these: adult German cockroaches; 1.5 mL sprayed; concentration [%]: nicofluprole 0.01, imiprothrin 0.01, deltamethrin 0.0002, alone or mixed; 45 minutes after spraying. Here is the method:
as §1, §2, §3

The test system is the same in data set [3]. Nature of the data set: Test Example 7: control test against German cockroaches, spray in chamber. The conditions noted are these: adult German cockroaches; 1.5 mL sprayed; concentration [%]: isocycloseram 0.05, imiprothrin 0.01, cypermethrin 0.01, alone or mixed; 120 minutes after spraying. Here is the method:
as §1, §2, §3

Data set [4] has the same test system. Description: Test Example 1: control test against German cockroaches, spray in chamber (cup without filter paper). The conditions noted are these: adult German cockroaches; 1.5 mL sprayed; concentration [%]: broflanilide 0.01, imiprothrin 0.01, cypermethrin 0.01, alone or mixed; 120 minutes after spraying. Here is the method:
as §1, §2
Regarding the synergistic effect of three types of the active ingredient compounds, in case where the moribund and mortal rates (%) when actually treated with a mixture obtained by mixing three types of the active ingredient compounds exceed the expected value A calculated by using the moribund and mortal rates (%) when actually treated with a mixture obtained by mixing two types of the active ingredient compounds among three types thereof, and the moribund and mortal rates (%) calculated when actually treated the remaining one type of the active ingredient compound, or the expected value B (%) calculated from the moribund and mortal rates (%) when actually treated with each of three types of the active ingredient compounds alone, it was determined that the synergistic effect exists.
In a plastic cup (diameter: 12.4 cm, height: 10.2 cm), ten adult German cockroaches (Blattella germanica) (five males and five females each) were released, and the plastic cup was placed in the center of the bottom of a box-shaped chamber (46 cm×46 cm×70 cm in height). […] After a lapse of 120 minutes from spraying, the number of dead and moribund individuals was examined, and moribund and mortal rates (%) were determined by the equation 3 below. […]

The test system is the same in data set [5]. Nature of the data set: Test Example 2: control test against German cockroaches, spray in chamber. The following applies: adult German cockroaches; 1.5 mL sprayed; concentration [%]: nicofluprole 0.01, imiprothrin 0.01, cypermethrin 0.01, alone or mixed; 120 minutes after spraying. Here is the method: as §1, §2, §3
For data set [6] the test system is unchanged. Nature of the data set: Test Example 3: control test against German cockroaches, spray in chamber. The following applies: adult German cockroaches; 1.5 mL sprayed; concentration [%]: broflanilide 0.02, imiprothrin 0.01, cyfluthrin 0.0016, alone or mixed; 420 minutes after spraying. From the text: (§4) Next, the usefulness of the inventive composition for controlling pests will be indicated by Test Examples.
(§5) (hereinafter referred to as expected value A)
(§6) (hereinafter referred to as expected value B)
(§7) In a plastic cup (diameter: 12.4 cm, height: 10.2 cm) lined with a filter paper, ten adult German cockroaches (Blattella germanica) (five males and five females each) were released, and the plastic cup was placed in the center of the bottom of a box-shaped chamber (46 cm×46 cm×70 cm in height). From the height of 60 cm, 1.5 mL of each of formulations prepared by dissolving a single agent of any one of broflanilide, imiprothrin and cyfluthrin, or a mixed agent of two or more thereof in a mixture of isopropyl alcohol and Isopar M at a mixing ratio of 1:9 was sprayed under a spray pressure of 0.041 MPa. After a lapse of 420 minutes from spraying, the number of dead and moribund individuals was examined, and moribund and mortal rates (%) were determined by the above equation 3. The test was performed through two replicates. Dead individuals are completely immobile individuals, and moribund individuals are individuals who cannot get up when turned on their backs.

For data set [7] the test system is unchanged. Description: Test Example 9: control test against German cockroaches, spray in chamber. The conditions noted are these: adult German cockroaches; 1.5 mL sprayed; concentration [%]: broflanilide 0.02, imiprothrin 0.01, permethrin 0.05, alone or mixed; 420 minutes after spraying.
Text: as §4, §5, §6
as §7, with “permethrin,” for “cyfluthrin,”

For data set [8] the test system is unchanged. Nature of the data set: Test Example 5: control test against German cockroaches, spray in chamber. The following applies: adult German cockroaches; 1.5 mL sprayed; concentration [%]: nicofluprole 0.01, imiprothrin 0.01, cyfluthrin 0.0002, alone or mixed; 45 minutes after spraying.
Text: as §4, §5, §6
as §7, with “each) […]” for “each)”, “nicofluprole,” for “broflanilide,”, “45” for “420”

For data set [9] the test system is unchanged. Nature of the data set: Test Example 8: control test against German cockroaches, spray in chamber. The following applies: adult German cockroaches; 1.5 mL sprayed; concentration [%]: nicofluprole 0.01, imiprothrin 0.01, phenothrin 0.1, alone or mixed; 45 minutes after spraying. Here is the method:
as §1, §2, §3

For the molecule `CC1(C)[C@H](C(=O)O[C@H](C#N)c2cccc(Oc3ccccc3)c2)[C@@H]1/C=C(\Cl)C(F)(F)F` (racemic) [Lambda-cyhalothrin, lambda-cyhalothrin], in [1], the “Moribund and mortal rates [%] after 60 minutes” value is listed as 45%.
For the molecule `CC1(C)[C@H](C(=O)O[C@H](C#N)c2cccc(Oc3ccccc3)c2)[C@@H]1C=C(Br)Br` [Deltamethrin, deltamethrin], the “Moribund and mortal rates [%] after 45 minutes” value in data set [2] turned out to be 0%.
As to `CC1(C)C(C=C(Cl)Cl)C1C(=O)OC(C#N)c1cccc(Oc2ccccc2)c1` (centres unmarked) [Cypermethrin, cypermethrin], the “Moribund and mortal rates [%] after 120 minutes” value in data set [3] worked out at 50%; in data set [4], 45%; in data set [5], 15%.
Turning to `CN(C(=O)c1ccccc1)c1cccc(C(=O)Nc2c(Br)cc(C(F)(C(F)(F)F)C(F)(F)F)cc2C(F)(F)F)c1F` [Broflanilide, broflanilide], the “Moribund and mortal rates [%] after 120 minutes” value in [4] was found to be 5%. Moreover, the “Moribund and mortal rates [%] after 420 minutes” value in [6] and in [7] was 70% throughout.
For the molecule `CC1(C)C(C=C(Cl)Cl)C1C(=O)OC(C#N)c1ccc(F)c(Oc2ccccc2)c1` (centres unmarked) [Cyfluthrin, cyfluthrin], the “Moribund and mortal rates [%] after 45 minutes” value in data set [8] stood at 0%. Moreover, the “Moribund and mortal rates [%] after 420 minutes” value in data set [6] is given as 0%.
As for `CC(C)=CC1C(C(=O)OCc2cccc(Oc3ccccc3)c2)C1(C)C` (centres unmarked) [Phenothrin, phenothrin], in data set [9], the “Moribund and mortal rates [%] after 45 minutes” value was determined as 5%.
